Patent US20230027361A1, “METTL3 MODULATORS” (priority 2019, published 2023)
Read-outs that look alike come from different tables or passages of the source.

Assays:
METTL1/WDR4 = METTL1/WDR4 (Homo sapiens, UniProt Q9UBP6); assay: METTL1 Assay (METTL1 biochemical assay)
How it was run: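 Radiometric methyltransfer by METTL1/WDR4 (6.25 nM f.c., 5 min preincubation) at ambient temperature in HEPES pH 7.5, KCl, MgCl2, DTT; started with 25 nM 3′-biotinylated RNA and 60 nM 3H-SAM, run 20 min, quenched with 15 μM cold SAM. Product captured on streptavidin flashplates (2 h, 25° C), counted by scintillation.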

METTL3/METTL14 = METTL3/METTL14 (Homo sapiens, UniProt Q86U44); assay: METTL3-14 Standard Enzyme Assay (METTL3 biochemical assay)
Chain of METTL3/METTL14 (Q86U44 whole entry, species assumed): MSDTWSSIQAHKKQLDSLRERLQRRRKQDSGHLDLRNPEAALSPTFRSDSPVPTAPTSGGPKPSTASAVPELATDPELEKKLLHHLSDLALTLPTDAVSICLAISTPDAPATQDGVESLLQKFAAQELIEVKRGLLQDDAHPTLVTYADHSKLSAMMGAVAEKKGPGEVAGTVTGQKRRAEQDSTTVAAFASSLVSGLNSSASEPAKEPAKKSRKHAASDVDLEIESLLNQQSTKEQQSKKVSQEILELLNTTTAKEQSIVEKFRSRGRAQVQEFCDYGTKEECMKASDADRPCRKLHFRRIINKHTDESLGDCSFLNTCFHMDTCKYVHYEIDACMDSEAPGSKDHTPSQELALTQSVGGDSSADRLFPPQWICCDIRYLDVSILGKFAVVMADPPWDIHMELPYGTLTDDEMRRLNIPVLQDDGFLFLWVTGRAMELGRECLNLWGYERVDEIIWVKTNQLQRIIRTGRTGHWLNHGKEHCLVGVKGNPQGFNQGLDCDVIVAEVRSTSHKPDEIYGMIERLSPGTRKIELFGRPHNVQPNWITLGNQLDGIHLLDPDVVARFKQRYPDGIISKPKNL
Chain of METTL3/METTL14 (Q9HCE5 whole entry partner, species assumed): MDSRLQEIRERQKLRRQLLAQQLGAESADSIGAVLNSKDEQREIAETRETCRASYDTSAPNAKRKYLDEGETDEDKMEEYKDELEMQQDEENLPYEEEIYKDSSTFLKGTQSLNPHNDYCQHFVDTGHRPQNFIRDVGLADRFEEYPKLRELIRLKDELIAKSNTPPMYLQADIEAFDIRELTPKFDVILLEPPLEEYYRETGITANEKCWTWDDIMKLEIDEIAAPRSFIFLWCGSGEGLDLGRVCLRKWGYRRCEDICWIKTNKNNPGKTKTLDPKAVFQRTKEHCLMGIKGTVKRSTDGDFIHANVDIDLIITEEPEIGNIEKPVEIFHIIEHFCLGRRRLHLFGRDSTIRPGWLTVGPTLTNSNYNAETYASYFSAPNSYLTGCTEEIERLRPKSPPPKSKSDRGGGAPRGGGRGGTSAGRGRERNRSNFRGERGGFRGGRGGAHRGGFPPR
How it was run: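 METTL3/METTL14 at 2.5 nM, preincubated 5 min with compound in 20 mM HEPES pH 7.5, 50 mM KCl, 250 μM MgCl2, 1 mM DTT, at ambient temperature. Started with 100 nM 3′-biotinylated RNA and 100 nM ³H-SAM, quenched at 30 min with 15 μM cold SAM. Methylation read by scintillation on streptavidin flashplates.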

PRMT5-MEP50 = PRMT5-MEP50 (Homo sapiens, UniProt O14744); assay: PRMT5 Assay (PRMT5 biochemical assay)
Chain of PRMT5-MEP50 (O14744 whole entry): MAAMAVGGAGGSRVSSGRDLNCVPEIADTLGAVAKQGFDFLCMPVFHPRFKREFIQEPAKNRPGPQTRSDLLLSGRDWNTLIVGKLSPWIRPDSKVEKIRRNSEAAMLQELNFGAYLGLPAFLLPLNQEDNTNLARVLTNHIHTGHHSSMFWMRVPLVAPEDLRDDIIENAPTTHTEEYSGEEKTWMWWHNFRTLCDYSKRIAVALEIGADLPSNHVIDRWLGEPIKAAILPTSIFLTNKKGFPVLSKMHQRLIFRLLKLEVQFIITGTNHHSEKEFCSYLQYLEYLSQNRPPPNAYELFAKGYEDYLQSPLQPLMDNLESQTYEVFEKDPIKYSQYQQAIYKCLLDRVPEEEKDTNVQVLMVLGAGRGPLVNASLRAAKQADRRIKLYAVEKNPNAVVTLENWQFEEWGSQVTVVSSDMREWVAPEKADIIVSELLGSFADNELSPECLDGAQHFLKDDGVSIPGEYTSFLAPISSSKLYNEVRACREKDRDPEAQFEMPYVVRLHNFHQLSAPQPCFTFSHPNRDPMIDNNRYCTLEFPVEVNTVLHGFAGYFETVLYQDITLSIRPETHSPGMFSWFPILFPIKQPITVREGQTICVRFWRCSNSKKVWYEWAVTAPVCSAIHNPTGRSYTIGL
Chain of PRMT5-MEP50 (Q9BQA1 whole entry partner): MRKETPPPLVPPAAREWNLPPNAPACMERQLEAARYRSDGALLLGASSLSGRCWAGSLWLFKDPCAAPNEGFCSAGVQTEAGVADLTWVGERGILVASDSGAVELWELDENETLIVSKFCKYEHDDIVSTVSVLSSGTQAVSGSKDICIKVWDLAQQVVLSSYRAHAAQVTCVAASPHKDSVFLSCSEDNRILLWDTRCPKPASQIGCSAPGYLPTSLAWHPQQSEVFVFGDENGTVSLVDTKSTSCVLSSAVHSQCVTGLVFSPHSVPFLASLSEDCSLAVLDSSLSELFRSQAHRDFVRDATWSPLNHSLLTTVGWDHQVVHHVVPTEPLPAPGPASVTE
How it was run: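 PRMT5-MEP50 (2.5 nM final) preincubated 5 min with compound, then reacted 60 min at ambient temperature with 100 nM biotinylated N-acetyl histone H4 peptide and 250 nM 3H-SAM in 20 mM Tris-HCl pH 8.0, 1 mM DTT, 0.01% Tween. Quenched with 15 μM cold SAM; methylated peptide captured on streptavidin flashplates, scintillation counted.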

[1] = test system: m6A in cellular mRNA of MOLM-13 cells; assay: m6A-mRNA LC-MS/MS Assay (m6A cellular assay); type: cell-based; settings: Homo sapiens
Experimental: Cells were harvested by centrifugation followed by mRNA extraction using DIRECT Dynabeads mRNA DIRECT kit (Life Technologies). mRNA was quantified on NanoDrop spectrophotometer (Thermo Fisher Scientific) and digested into single nucleosides using Nucleoside Digestion Mix (New England Biolabs). […] Quantification is performed in comparison with the standard curve, obtained from pure nucleoside standards (Selleck Chemicals) running with the same batch of samples. Percentage m^6A in cellular mRNA is calculated as 100*(m^6A/A).

METTL16 = target: T1, METTL16 (Homo sapiens, UniProt Q86W50); assay: METTL16 Assay (METTL16 biochemical assay); settings: read-out: METTL16 IC50
T1 sequence (Q86W50 1-562): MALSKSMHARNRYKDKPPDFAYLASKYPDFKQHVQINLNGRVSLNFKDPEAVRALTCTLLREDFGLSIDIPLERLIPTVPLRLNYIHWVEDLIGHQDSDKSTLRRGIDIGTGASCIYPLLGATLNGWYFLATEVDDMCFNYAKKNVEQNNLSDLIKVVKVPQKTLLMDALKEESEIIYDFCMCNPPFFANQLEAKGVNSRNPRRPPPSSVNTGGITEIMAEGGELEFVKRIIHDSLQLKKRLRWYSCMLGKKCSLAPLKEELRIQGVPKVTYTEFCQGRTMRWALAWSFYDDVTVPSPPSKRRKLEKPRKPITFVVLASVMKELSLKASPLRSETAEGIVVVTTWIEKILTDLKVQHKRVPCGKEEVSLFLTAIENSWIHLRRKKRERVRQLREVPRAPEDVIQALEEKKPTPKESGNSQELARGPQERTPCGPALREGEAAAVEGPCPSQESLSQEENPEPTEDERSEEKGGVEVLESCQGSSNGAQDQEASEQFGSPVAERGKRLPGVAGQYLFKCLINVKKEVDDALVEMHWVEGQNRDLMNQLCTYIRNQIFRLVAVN
Experimental: Assays were performed in a 25 μl-volume in 384-well V-bottom polypropylene microplates (Greiner Bio-One, cat. No. 781280) at ambient temperature. Optimized 1× assay buffer was 20 mM HEPES pH 7.5, 50 mM KCl, 1 mM DTT, 0.01% Tween, 0.01% BSG, 0.004 U/μl RNAseOUT (cat. No. 10777019, ThermoFisher Scientific, Waltham, Mass.). For compound screening METTL16 (final concentration, f.c.=100 nM) was added using a Multidrop Combi (ThermoFisher Scientific, Waltham, Mass.) and preincubated for 5 min. Reactions were started by adding 3′ biotinylated RNA ([…]-biotin) (f.c.=50 nM), 3H-SAM (f.c.=200 nM) and non-radiolabeled SAM (f.c.=800 nM) substrates. Reactions proceeded for 20 minutes and were quenched with excess non-radioactive SAM (f.c.=100 μM). The reactions were then transferred to streptavidin-coated flashplates and incubated for 2 hours at 25° C. Following two washing cycles with 0.1% Tween-20, the plates were sealed and read on a TopCount (PerkinElmer, Waltham, Mass.) plate-based scintillation counter. For determination of kinetic parameters, reaction times were optimized so that measurements were taken during the initial velocity phase of the reaction.

MOLM-13 cells = assay: MOLM-13 96 Hour Cell Proliferation Assay; type: cell-based; settings: Homo sapiens
How it was run: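 MOLM-13 cells in RPMI 1640 with 10% FBS were plated overnight at 37 °C, then exposed to compound dilutions at 0.25% DMSO final for 96 h. Viability was read by CellTiter-Glo luminescence, normalised to staurosporine (100% death) and DMSO (0% death) controls, and IC50 was fitted by 4-parameter logistic regression.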

[2] = METTL1 biochemical assay; read-out: METTL1 IC50
[3] = METTL3 biochemical assay, read-out: METTL3 IC50
[4] = PRMT5 biochemical assay, read-out: PRMT5 IC50
[5] = read-out: METTL1 IC50; METTL1 biochemical assay

Chain of METTL1/WDR4 (Q9UBP6 whole entry, species assumed): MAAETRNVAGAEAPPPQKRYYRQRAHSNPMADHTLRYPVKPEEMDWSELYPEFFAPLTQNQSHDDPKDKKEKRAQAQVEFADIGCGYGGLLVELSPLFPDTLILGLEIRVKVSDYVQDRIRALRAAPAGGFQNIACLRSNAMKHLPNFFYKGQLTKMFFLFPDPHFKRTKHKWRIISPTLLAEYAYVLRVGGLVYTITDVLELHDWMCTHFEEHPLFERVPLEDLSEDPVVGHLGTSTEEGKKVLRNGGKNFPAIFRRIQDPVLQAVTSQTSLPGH
Chain of METTL1/WDR4 (P57081 whole entry partner, species assumed): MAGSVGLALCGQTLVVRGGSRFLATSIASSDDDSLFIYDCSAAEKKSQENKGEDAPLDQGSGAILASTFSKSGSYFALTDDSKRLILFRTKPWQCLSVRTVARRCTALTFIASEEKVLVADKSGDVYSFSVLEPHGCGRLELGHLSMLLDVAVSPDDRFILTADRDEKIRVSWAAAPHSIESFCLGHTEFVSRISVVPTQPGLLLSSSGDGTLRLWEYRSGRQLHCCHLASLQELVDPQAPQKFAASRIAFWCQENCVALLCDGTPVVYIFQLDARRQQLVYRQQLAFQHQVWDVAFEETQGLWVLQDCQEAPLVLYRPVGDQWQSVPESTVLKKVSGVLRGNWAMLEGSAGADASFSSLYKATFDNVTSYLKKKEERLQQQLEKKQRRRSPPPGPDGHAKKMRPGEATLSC

| Compound | IC50 (METTL1/WDR4; [2]) [nM] | IC50 (METTL3/METTL14; [3]) [nM] | IC50 (PRMT5-MEP50; [4]) [nM] | IC50 (METTL16) [nM] | IC50 (METTL1/WDR4; [5]) [nM] | also measured |
| --- | --- | --- | --- | --- | --- | --- |
| CCNc1ccc2ccc(OC[C@H]3O[C@@H](n4ccc5c(N)ncnc54)[C@@H](F)[C@@H]3O)cc2n1 [I-5] | > 1000 | < 10 | 10 to 100 |  |  | IC50 ([1]; MOLM-13, m6A cellular assay, read-out: m^6A IC50): 1000 to 10000 nM |
| Nc1ccnc2cc(OC[C@H]3O[C@@H](n4cc(Br)c5c(N)ncnc54)[C@@H](F)[C@@H]3O)ccc12 [I-13] |  | 100 to 1000 | 10 to 100 | > 1000 |  | IC50 (MOLM-13 cells; MOLM-13, 96 h): > 10000 nM |
| CNc1ccc2cnc(OC[C@H]3O[C@@H](n4cc(Br)c5c(N)ncnc54)[C@H](O)[C@@H]3O)nc2n1 [I-74] |  | > 1000 | 100 to 1000 | > 1000 | > 1000 | IC50 (MOLM-13 cells; MOLM-13, 96 h): > 10000 nM |
| Nc1ncnc2c1ccn2[C@@H]1O[C@H](CCc2ccc3ccc(N4CCCC4)nc3c2)[C@@H](O)[C@H]1O [I-68] |  | 10 to 100 | 100 to 1000 | > 1000 | > 1000 | IC50 (MOLM-13 cells; MOLM-13, 96 h): 1000 to 10000 nM |
| CNc1ccc2ccc(OC[C@H]3O[C@@H](n4cc(-c5ccccn5)c5c(N)ncnc54)[C@@H](F)[C@@H]3O)cc2n1 [I-9] | > 1000 |  |  |  |  | IC50 (METTL3/METTL14; read-out: METTL3 IC50, METTL3 biochemical assay): < 10 nM; IC50 (PRMT5-MEP50; read-out: PRMT5 IC50, PRMT5 biochemical assay): 10 to 100 nM; IC50 ([1]; MOLM-13, read-out: m^6A IC50): 1000 to 10000 nM |
| CNc1ccc2ccc(OC[C@H]3O[C@@H](n4cc(C)c5c(N)ncnc54)[C@@H](F)[C@@H]3O)cc2n1 [I-44] |  | 10 to 100 | 10 to 100 | > 1000 | > 1000 |  |
| CNc1ccc2cc(OC[C@H]3O[C@@H](n4cc(Br)c5c(N)ncnc54)[C@H](O)[C@@H]3O)ccc2n1 [I-69] | > 1000 | 10 to 100 | 10 to 100 | > 1000 |  |  |
| CNc1ccc2ccc(OC[C@H]3O[C@@H](n4cc(C5CCN(C)CC5)c5c(N)ncnc54)[C@@H](F)[C@@H]3O)cc2n1 [I-24] |  | 10 to 100 | 100 to 1000 | > 1000 | > 1000 |  |
| Cc1cn2ccc(CC[C@H]3C[C@@H](n4ccc5c(N)ncnc54)[C@H](O)[C@@H]3O)cc2n1 [I-84] | > 1000 | > 1000 | < 10 | > 1000 |  |  |
| Cc1ccn(-c2cn([C@@H]3O[C@H](COc4ccc5ccc(N6CCC6)nc5c4)[C@@H](O)[C@@H]3F)c3ncnc(N)c23)n1 [I-218] |  |  |  |  |  | IC50 (MOLM-13 cells): 1000 to 10000 nM; IC50 (METTL3/METTL14): < 10 nM; IC50 (PRMT5-MEP50): > 1000 nM; IC50 ([1]; MOLM-13, read-out: m^6A IC50): 1000 to 10000 nM |
| CNc1ccc2ccc(OC[C@@H]3C[C@@H](O)[C@H](n4cc(C5CCCC5)c5c(N)ncnc54)O3)cc2n1 [I-141] |  | 100 to 1000 | 100 to 1000 | > 1000 | > 1000 |  |
| CN(C)Cc1cccc(OC[C@H]2O[C@@H](n3cc(Br)c4c(N)ncnc43)[C@@H](F)[C@@H]2O)c1 [I-31] |  | > 1000 | 100 to 1000 | > 1000 | > 1000 |  |
| Nc1nc2ccc(OC[C@H]3O[C@@H](n4cc(Br)c5c(N)ncnc54)[C@@H](F)[C@@H]3O)cc2[nH]1 [I-21] |  | 100 to 1000 | 10 to 100 | > 1000 | > 1000 |  |
